Measurements reported in publication PMC6127322, “Novel Imidazole and Methoxybenzylamine Growth Inhibitors Affecting Salmonella Cell Envelope Integrity and its Persistence in Chickens” (Scientific Reports, 2018).
Values after ≈ are worked out from the molar mass of the structure shown. Like-named read-outs stand apart in the source and are kept apart here.

Legend:
[1] = system: Salmonella enterica subsp. enterica serotype Typhimurium; experiment: Checkerboard assay, SM and antibiotic combinations; assay type: cell-based; details: for MBC: Salmonella enterica, TYPHIMURIUM, antibiotic alone, M9 medium, read-out: AB MBCalone
Method: The potentiation effect of several antibiotics, commonly used to control Salmonella, was studied in a checkerboard assay. […] The MBC of each antibiotic was determined in M9 medium prior the experiment using a dose-response assay, as described above. For potentiation studies, 100 μl of a S. […] The MBC of each antibiotic was determined as described in the dose-response assay. Bacteria challenged with SMs or antibiotics alone at the same concentrations were used to determine the antibiotic-SM combination effects. […] Further, the bacterial suspension was plated on an agar medium and incubated at 37 °C for 36 hrs. The antibiotic-SM combination effect was calculated based on the determination of the fractional bactericidal concentration (FBC) as previously described[66],[67].

S. Typhimurium = assay type: cell-based, Salmonella enterica subsp. enterica serovar Typhimurium
Salmonella Javiana = experiment: Dose-response assay (MBC) on Salmonella serovars; assay type: cell-based, Salmonella enterica
Salmonella Heidelberg = experiment: Dose-response assay (MBC) on Salmonella serovars; assay type: cell-based; details: Salmonella enterica; serovar Heidelberg, M9 broth
Salmonella Newport = experiment: Dose-response assay (MBC) on Salmonella serovars; assay type: cell-based; details: Salmonella enterica; serovar Newport, M9 broth
Salmonella Saint-Paul = experiment: Dose-response assay (MBC) on Salmonella serovars; assay type: cell-based, Salmonella enterica; details: serovar Saint-Paul, M9 broth
Salmonella Enteritidis = experiment: Dose-response assay (MBC) on Salmonella serovars; assay type: cell-based; details: Salmonella enterica; serovar Enteritidis, M9 broth
[2] = system: S. Typhimurium LT2 wild-type (WT) strain; experiment: Dose-response assay (MIC and MBC determination) in M9 broth; assay type: cell-based, Salmonella enterica subsp. enterica serovar Typhimurium; details: 12 hrs at 37 °C, read-out: MBC (minimal bactericidal concentration)
Method: Typhimurium using high-throughput screening assay in a 96-well plate format. […] Plates were incubated in a Sunrise Tecan kinetic microplate reader for 12 hrs at 37 °C and the optical density (OD) was measured at 600 nm. The percentage of growth inhibition was calculated as: […]. Cultures from wells showing no turbidimetric increase were transferred onto a XLT4 agar plate. Plates were incubated at 37 °C for 36 hrs. […] S. Typhimurium was challenged with a determined concentration of SM as described in the primary screen.

[3] = system: nine Salmonella serotypes; experiment: Activity spectrum and dose-response across Salmonella serotypes; assay type: cell-based, Salmonella enterica
Method: The 128 SMs inhibiting S. Typhimurium growth (20% or higher) were tested for their antimicrobial effect on nine different Salmonella serovars frequently implicated in foodborne gastroenteritis outbreaks. […] Both screens were performed at 200 µM as described in the primary screening. Growth conditions for each strain are described in Supplementary Table S2.
S. Typhimurium was challenged with a determined concentration of SM as described in the primary screen.

[4] = system: Kan^R S. Typhimurium in G. mellonella larvae; experiment: Efficacy in Salmonella-infected G. mellonella larvae; assay type: in vivo, Galleria mellonella; details: for Survival of infected larvae: three days
Method: Wax moths were selected as mentioned above. For this study, Kan^R S. Typhimurium was used for challenge. First, the virulence of Kan^R S. Typhimurium was assessed in comparison to WT parent S. Typhimurium strain in G. mellonella. Briefly, larvae (n = 20) were infected in one pro-leg with approximately 8.5 × 10^3 S. Typhimurium suspended in 10 mM MgSO4 (8,5 µl of inoculum) and incubated for three days in the dark at 37 °C in a petri dish. Survival was monitored every 12 hrs for three days. Bacterial quantification was performed once the larvae had died (dark pigmentation or no reaction to a mechanical stimulus) or after 72 hrs of incubation. Larvae were washed once with 70% ethanol, twice with sterile distilled water for 30 sec each, and transferred individually into an Eppendorf® tubes containing 1 ml of 1X PBS and homogenized. The mixture was serially diluted, plated on XLT-4 agar plate supplemented with 50 µg/ml kanamycin, and incubated for 36 hrs at 37 °C. Larvae not treated and larvae treated with the buffer mix were included as controls. The virulence of Kan^R and WT S. Typhimurium strains was assessed by comparing the larval mortality and bacterial counts.
To test the effect of SMs on S. Typhimurium in larvae, SMs and Kan^R S. Typhimurium were injected into two different pro-legs and at different time points as previously described. First, the larvae were treated with SMs, then incubated for 2 hrs at 37 °C in a petri dish, and infected with approximately 8.5 × 10^3 of Kan^R S. Typhimurium per larva. Summary of treatments are described in Supplementary Table S3. Larvae treated with 50 mg/kg chloramphenicol were used as control (lowest concentration of antibiotic allowing 100% larva survival rate; see Supplementary Fig. S3F).
34 Supplemental Table 3. SM treatment groups: wax moth study
Groups Treatment S. Typhimurium*
Negative control 30% DMSO Yes
36 At the given concentration, SMs were soluble at 30% DMSO and higher. Asterisk:
37 larvae were infected with approximately 3.5 X 104 S. Typhimurium bacteria per […]

[5] = antibiotic combined with SM1 at the concentration in the next cell
[6] = antibiotic combined with SM3 at the concentration in the next cell
[7] = antibiotic combined with SM4 at the concentration in the next cell
[8] = antibiotic combined with SM5 at the concentration in the next cell

SMILES	MBC ([1]; 12 h)	AB MBCcombined [1, 6]	AB MBCcombined [1, 7]	AB MBCcombined [1, 8]	Combination effect (FBC class) ([1]; antibiotic with SM1)	Combination effect (FBC class) ([1]; antibiotic with SM3)	Combination effect (FBC class) ([1]; antibiotic with SM4)	Combination effect (FBC class) ([1]; antibiotic with SM5)	MBC [2]	other results
CO/N=C(\C(=O)N[C@@H]1C(=O)N2C(C(=O)O)=C(COC(C)=O)CS[C@H]12)c1csc(N)n1 [Cefotaxime]	3.2 µg/mL	3.2 µg/mL	3.2 µg/mL	3.2 µg/mL	c (Indifferent (FBC > 1.0 and ≤2.0; reduction in MBCs inferior to 50% for both antibiotic and SM))	c (Indifferent (FBC > 1.0 and ≤2.0; reduction in MBCs inferior to 50% for both antibiotic and SM))	c (Indifferent (FBC > 1.0 and ≤2.0; reduction in MBCs inferior to 50% for both antibiotic and SM))	c (Indifferent (FBC > 1.0 and ≤2.0; reduction in MBCs inferior to 50% for both antibiotic and SM))	–	AB MBCcombined [1, 5]: 3.2 µg/mL
CC[C@H]1OC(=O)[C@H](C)[C@@H](O[C@H]2C[C@@](C)(OC)[C@@H](O)[C@H](C)O2)[C@H](C)[C@@H](O[C@@H]2O[C@H](C)C[C@H](N(C)C)[C@H]2O)[C@](C)(O)C[C@@H](C)C(=O)[C@H](C)[C@@H](O)[C@]1(C)O [Erythromycin]	200 µg/mL	200 µg/mL	200 µg/mL	200 µg/mL	c (Indifferent (FBC > 1.0 and ≤2.0; reduction in MBCs inferior to 50% for both antibiotic and SM))	c (Indifferent (FBC > 1.0 and ≤2.0; reduction in MBCs inferior to 50% for both antibiotic and SM))	c (Indifferent (FBC > 1.0 and ≤2.0; reduction in MBCs inferior to 50% for both antibiotic and SM))	c (Indifferent (FBC > 1.0 and ≤2.0; reduction in MBCs inferior to 50% for both antibiotic and SM))	–	AB MBCcombined [1, 5]: 200 µg/mL
C[C@@H](O)[C@H]1C(=O)N2C(C(=O)O)=C(S[C@@H]3CN[C@H](C(=O)N(C)C)C3)[C@H](C)[C@H]12 [Meropenem]	0.2 µg/mL	–	0.2 µg/mL	0.2 µg/mL	b (Additive effect (FBC > 0.5 and ≤ 1.0; percentage reduction in MBCs between 50% and 75% for both antibiotic and SM))	c (Indifferent (FBC > 1.0 and ≤2.0; reduction in MBCs inferior to 50% for both antibiotic and SM))	c (Indifferent (FBC > 1.0 and ≤2.0; reduction in MBCs inferior to 50% for both antibiotic and SM))	c (Indifferent (FBC > 1.0 and ≤2.0; reduction in MBCs inferior to 50% for both antibiotic and SM))	–	MBC [1]: 0.2 µg/mL
CCn1cc(C(=O)O)c(=O)c2ccc(C)nc21 [Nalidixic acid]	16 µg/mL	16 µg/mL	16 µg/mL	16 µg/mL	c (Indifferent (FBC > 1.0 and ≤2.0; reduction in MBCs inferior to 50% for both antibiotic and SM))	c (Indifferent (FBC > 1.0 and ≤2.0; reduction in MBCs inferior to 50% for both antibiotic and SM))	c (Indifferent (FBC > 1.0 and ≤2.0; reduction in MBCs inferior to 50% for both antibiotic and SM))	c (Indifferent (FBC > 1.0 and ≤2.0; reduction in MBCs inferior to 50% for both antibiotic and SM))	–	MBC [1]: 16 µg/mL
CN(CCO)CC(O)Cn1c2ccc(Br)cc2c2cc(Br)ccc21 (stereo not drawn) [SM2]	–	–	–	–	–	–	–	–	100 µM (≈ 45.6 µg/mL)	Concentration in which resistant bacteria were able to grow (S. Typhimurium; M9 broth, 4X MBC): 400 µM; Resistance development of S. Typhimurium (S. Typhimurium; lethal dose (2X MBC) on solid medium or repeated exposure to sub-lethal dose (0.75X MBC) in liquid medium): developed resistance; MBC (Salmonella Javiana): 200 µM (≈ 91.2 µg/mL); MBC (Salmonella Heidelberg): 200 µM (≈ 91.2 µg/mL); MBC (Salmonella Newport): 200 µM (≈ 91.2 µg/mL); MBC (Salmonella Saint-Paul): 200 µM (≈ 91.2 µg/mL); MBC (Salmonella Enteritidis): 200 µM (≈ 91.2 µg/mL); MBC ([2]; Salmonella enterica): 100 µM (≈ 45.6 µg/mL); Effect against the nine Salmonella serotypes ([3]; 200 µM, M9 broth): cidal; MBC ([3]; Salmonella, read-out: MBCs among the nine serotypes): 100 to 200 µM (≈ 45.6 to 91.2 µg/mL)
O=[N+]([O-])c1ccc(F)c(N=Cc2cc(Cl)cc(Cl)c2O)c1 [SM7]	–	–	–	–	–	–	–	–	50 µM (≈ 16.5 µg/mL)	–
COc1cccc(N=Cc2cc(Cl)cc(Cl)c2O)c1 [SM8]	–	–	–	–	–	–	–	–	100 µM (≈ 29.6 µg/mL)	–
O=C(N[C@H](CO)[C@H](O)c1ccc([N+](=O)[O-])cc1)C(Cl)Cl [chloramphenicol]	–	–	–	–	–	–	–	–	–	Survival of infected larvae ([4]; 50 mg/kg): 100%; Survival of infected larvae ([4]; 50, 75, and 100 mg/kg, treated 2 hrs before infection): 100%; Lowest concentration allowing 100% larva survival rate ([4]; infected larvae): 50 mg/kg
